Patent EP0240392A1, “Compounds of the cyclophosphazene type, process for their preparation and pharmaceutical preparation containing them” (CENTRE NATIONAL DE LA RECHERCHE SCIENTIFIQUE (CNRS), priority 1986, dated 1987)
Read-outs that look alike come from different tables or passages of the source. Marks after values point to notes of the source that are not given here.

Experiments:
[1] = system: RETICULO SARCOME M5076 MURIN; assay: Antitumour activity on murine M5076 reticulum sarcoma implanted i.m. in mice; format: in vivo, souris C57Bl/6; settings: for Poids de la tumeur (g±S.E.) / Poids du foie (g±S.E.) / Poids corporel (g±S.E.) / Poids de la rate (mg±S.E.): jour 23; for nombre de souris vivantes/total: Tableau 5
Excerpt: (§1) Les tests d'activité antitumorale ont été conduits au sein du Screening and Pharmacology Group de l'E.O.R.T.C., implanté à l'Institut Mario Negri de Milan.
(§2) Ces essais ont été conduits soit en mono-injection à différentes doses au jour J+1 suivant la greffe de la tumeur, soit en poly-injections chroniques Q1D, soit en protocoles Q4D.

[2] = system: CARCINOME DU POUMON DE LEWIS; assay: Antitumour activity on Lewis lung carcinoma implanted i.m. in mice; format: in vivo, souris C57Bl/6
Excerpt: as §1, §2

[3] = Acute toxicity i.p. in mice (DLo, maximal non-lethal dose); format: in vivo, souris mâles Swiss ou CD2F1
Description: La toxicité de SPM a été déterminée sur des souris mâles Swiss ou CD2F1. La léthalité, quand elle existe, apparaît systématiquement aux jours 5 et 6 après l'adminstration par voie i.p. L'enregistrement de cette léthalité en fonction de la dose injectée permet de déduire la DLo qui est la dose maximale non léthale. La même valeur de DLo a été obtenue chez les Swiss et les CD2F1 : elle a été trouvée égale à 1 500 mg/kg. C'est là un résultat remarquable.

[4] = Solubility in water and physiological serum; format: physicochemical
Excerpt: La solubilité dans l'eau et dans le sérum physiologique est supérieure à 20 g/l ce qui est donc largement suffisant pour la réalisation de formes injectables.

ERYTH[…] K562 = assay: Growth of human erythroleukemia K562 in vitro; format: cell-based, humaine
[5] = 250 mg/kg i.p. x j 1,5,9, jour 14
[6] = 250 mg/kg i.p. x j 1,5,9, jour 21
[7] = 300 mg/kg i.p. x j 1,5,9, jour 21
[8] = 200 mg/kg i.p. x j 1,5,9, sacrifice jour 25

For `C(CCN1CCCNP12=NP(N1CC1)(N1CC1)=NP(N1CC1)(N1CC1)=N2)CN1CCCNP12=NP(N1CC1)(N1CC1)=NP(N1CC1)(N1CC1)=N2` (stereo not shown) [SPM], the “Poids de la tumeur (g±S.E.)” value ([1]; 200 mg/kg i.p. x j 1,5,9) was 3,2003±0,18 g, the “Poids du foie (g±S.E.)” value ([1]; 200 mg/kg i.p. x j 1,5,9) was 1,4620±0,08 g and the “nombre de souris avec tumeur/total” value ([1]; 200 mg/kg i.p. x j 1-9, jour 14) was “- (0/10)”. For the same compound, the “nombre de souris avec tumeur/total” value ([1]; 200 mg/kg i.p. x j 1-9, jour 21) was “- (0/10)”, the “Poids corporel (g±S.E.)” value ([1]; 200 mg/kg i.p. x j 1-9) was 17,20±0,48 g and the “Poids de la rate (mg±S.E.)” value ([1]; 200 mg/kg i.p. x j 1-9) was 117,8±9,9 mg. The “Poids de la tumeur (g±S.E.)” value ([1]; 200 mg/kg i.p. x j 1-9) was 0,3819±0,13 g, the “Poids du foie (g±S.E.)” value ([1]; 200 mg/kg i.p. x j 1-9) was 1,1088±0,01 g and the “Volume moyen de la tumeur (cm^3 ± S.E.)” value [1, 5] was 0,32 cm^3. The “nombre de souris avec tumeur/total” value [1, 5] was 1/9, the “Volume moyen de la tumeur (cm^3 ± S.E.)” value [1, 6] was 1,02±0,08 cm^3 and the “nombre de souris avec tumeur/total” value [1, 6] was 8/9. For the same compound, the “Poids corporel (g±S.E.)” value ([1]; 250 mg/kg i.p. x j 1,5,9) was 20,16±0,47 g, the “Poids de la rate (mg±S.E.)” value ([1]; 250 mg/kg i.p. x j 1,5,9) was 144,5± 7,3 mg and the “Poids de la tumeur (g±S.E.)” value ([1]; 250 mg/kg i.p. x j 1,5,9) was 2,4530±0,18 g. The “Poids du foie (g±S.E.)” value ([1]; 250 mg/kg i.p. x j 1,5,9) was 1,2015±0,04 g, the “nombre de souris avec tumeur/total” value ([1]; 300 mg/kg i.p. x j 1,5,9, jour 14) was “- (0/10)” and the “Volume moyen de la tumeur (cm^3 ± S.E.)” value [1, 7] was 0,94±0,09 cm^3. For the same compound, the “nombre de souris avec tumeur/total” value [1, 7] was 9/10, the “Poids corporel (g±S.E.)” value ([1]; 300 mg/kg i.p. x j 1,5,9) was 20,20±0,53 g and the “Poids de la rate (mg±S.E.)” value ([1]; 300 mg/kg i.p. x j 1,5,9) was 125,6±10,8 mg. The “Poids de la tumeur (g±S.E.)” value ([1]; 300 mg/kg i.p. x j 1,5,9) was 2,2664±0,19 g, the “Poids du foie (g±S.E.)” value ([1]; 300 mg/kg i.p. x j 1,5,9) was 1,2654±0,06 g and the “nombre de souris vivantes/total” value ([1]; 250 mg/kg i.p. x j 1,5,9) was 250 " ( 9/9 ). The “nombre de souris vivantes/total” value ([1]; 300 mg/kg i.p. x j 1,5,9) was 300xj 1,5,9 (10/10), the “Volume de la tumeur (d^2.D/2)cm^3 ± S.E.” value ([2]; 200 mg/kg i.p. x j 1,5,9, jour 10) was 0,53±0,08 cm^3 and the “Volume de la tumeur (d^2.D/2)cm^3 ± S.E.” value ([2]; 200 mg/kg i.p. x j 1,5,9, jour 13) was 1,64±0,18 cm^3. For the same compound, the “Volume de la tumeur (d^2.D/2)cm^3 ± S.E.” value ([2]; 200 mg/kg i.p. x j 1,5,9, jour 17) was 3,49±0,15* cm^3, the “Volume de la tumeur (d^2.D/2)cm^3 ± S.E.” value ([2]; 200 mg/kg i.p. x j 1,5,9, jour 20) was 4,35±0,26* cm^3 and the “Volume de la tumeur (d^2.D/2)cm^3 ± S.E.” value ([2]; 200 mg/kg i.p. x j 1,5,9, jour 24) was 6,08±0,31* cm^3. The “Métastases Nombre moyen (N ± S.E.)” value [2, 8] was 14 ± 3,4, the “Métastases Poids moyen (mg ± S.E.)” value [2, 8] was 127,3 ± 43,1 mg and the “Poids moyen de la tumeur (g ± S.E.)” value [2, 8] was 7,40 ± 0,33 g. The “activité sur le carcinome du poumon de Lewis (result in words)” value ([2]; souris C57B1/6) was “intéressante activité”, the “DLo (dose maximale non léthale)” value ([3]; souris mâles CD2F1, i.p.) was 1 500 mg/kg and the “DLo (dose maximale non léthale)” value ([3]; souris mâles Swiss, i.p.) was 1 500 mg/kg. For the same compound, the solubility ([4]; serum, sérum physiologique, read-out: solubilité dans le sérum physiologique) was greater than 20 mg/mL, the solubility ([4]; water, eau, read-out: solubilité dans l'eau) was greater than 20 mg/mL and the “Nombre de cellules x 10^4” value (ERYTH[…] K562; 0,01 µg/ml, 24 heures) was 20,7 ± 1,7 x 10^4. For the same compound, the “Nombre de cellules x 10^4” value (ERYTH[…] K562; 0,1 µg/ml, 24 heures) was 17,8 ± 1,7 x 10^4, the “Nombre de cellules x 10^4” value (ERYTH[…] K562; 0,01 µg/ml, 48 heures) was 41,5 ± 1,6 x 10^4 and the “Nombre de cellules x 10^4” value (ERYTH[…] K562; 0,1 µg/ml, 48 heures) was 37,2 ± 4,5 x 10^4. The “Nombre de cellules x 10^4” value (ERYTH[…] K562; 0,01 µg/ml, 72 heures) was 60,7 ± 5,8 x 10^4, the “Nombre de cellules x 10^4” value (ERYTH[…] K562; 0,1 µg/ml, 72 heures) was 60,6 ± 5,4 x 10^4 and the “Nombre de cellules x 10^4” value (ERYTH[…] K562; 1 µg/ml, 24 heures) was 17,8 ± 3,3 x 10^4. The “Nombre de cellules x 10^4” value (ERYTH[…] K562; 1 µg/ml, 48 heures) was 36,4 ± 1,8 x 10^4, the “Nombre de cellules x 10^4” value (ERYTH[…] K562; 1 µg/ml, 72 heures) was 50,9 ± 4,3 x 10^4 and the “Nombre de cellules x 10^4” value (ERYTH[…] K562; 5 µg/ml, 24 heures) was 17,3 ± 1,4 x 10^4. The “Nombre de cellules x 10^4” value (ERYTH[…] K562; 5 µg/ml, 48 heures) was 20,9 ± 2,1 x 10^4, the “Nombre de cellules x 10^4” value (ERYTH[…] K562; 5 µg/ml, 72 heures) was 35,5 ± 2,0 x 10^4 and the “Nombre de cellules x 10^4” value (ERYTH[…] K562; 10 µg/ml, 24 heures) was 17,4 ± 0,9 x 10^4. For the same compound, the “Nombre de cellules x 10^4” value (ERYTH[…] K562; 10 µg/ml, 48 heures) was 21,1 ± 0,2 x 10^4, the “Nombre de cellules x 10^4” value (ERYTH[…] K562; 10 µg/ml, 72 heures) was 26,9 ± 2,3 x 10^4 and the “Nombre de cellules x 10^4” value (ERYTH[…] K562; 50 µg/ml, 24 heures) was 13,2 ± 1,7 x 10^4. The “Nombre de cellules x 10^4” value (ERYTH[…] K562; 50 µg/ml, 48 heures) was 15,0 ± 1,5 x 10^4, the “Nombre de cellules x 10^4” value (ERYTH[…] K562; 50 µg/ml, 72 heures) was 17,4 ± 1,3 x 10^4 and the “Nombre de cellules x 10^4” value (ERYTH[…] K562; 100 µg/ml, 24 heures) was 11,6 ± 0,4 x 10^4. The “Nombre de cellules x 10^4” value (ERYTH[…] K562; 100 µg/ml, 48 heures) was 14,7 ± 0,1 x 10^4, the “Nombre de cellules x 10^4” value (ERYTH[…] K562; 100 µg/ml, 72 heures) was 15,0 ± 0,8 x 10^4 and the “effet sur la croissance in vitro de l'érythroleucémie humaine K562 (result in words)” value (ERYTH[…] K562; in vitro, MYCLAz: même à dose toxique) was “inhibe d'une manière très remarquable la croissance in vitro”. The “amplitude de la plage de doses à effet significatif” value (ERYTH[…] K562; ratio of highest to lowest significant dose) was ≥ 10 000.
